Source: PubChem BioAssay AID330 (DTP/NCI, 2004)
Where “and” joins values, the source holds several entries; their conditions need not be identical. Equal values may be shown once. Toxic doses and inconclusive results are not listed. Rule for the calls: active = survival T/C of 150% or more; inactive = T/C below 125% in these data.

System: P388 leukemia ip, CD2F1 mice, survival T/C
Test: NCI In Vivo Anticancer Drug Screen. Data for tumor model P388 Leukemia (intraperitoneal) in CD2F1 (CDF1) mice
Settings: endpoint: median survival time, higher = longer survival
Method: The antitumor activity of compounds was measured in mice bearing transplantable tumors. Survival or tumor size were measured and the results are expressed as the measurement made in the treated group (T) divided by the measurement made in the vehicle treated control group (C). The tumor model used in this assay is P388 Leukemia (intraperitoneal) in CD2F1 (CDF1) mice

[1] = dose: 50.0 mg/kg/injection, schedule: Q01DX005 (ip), vehicle: saline with Tween-80
[2] = dose: 100.0 mg/kg/injection, schedule: Q01DX005 (ip), vehicle: saline with Tween-80
[3] = dose: 200.0 mg/kg/injection, schedule: Q01DX005 (ip), vehicle: saline with Tween-80
[4] = dose: 60.0 mg/kg/injection, schedule: Q01DX005 (ip), vehicle: saline with Tween-80
[5] = dose: 120.0 mg/kg/injection, schedule: Q01DX005 (ip), vehicle: saline with Tween-80
[6] = dose: 50.0 mg/kg/injection, schedule: Q01DX009 (ip), vehicle: Klucel (hydroxypropylcellulose) (HPC)
[7] = dose: 50.0 mg/kg/injection, schedule: Q01DX005 (ip), vehicle: Klucel (hydroxypropylcellulose) (HPC)
[8] = dose: 50.0 mg/kg/injection, schedule: Q01DX009 (ip), vehicle: saline
[9] = dose: 100.0 mg/kg/injection, schedule: Q01DX009 (ip), vehicle: saline
[10] = dose: 200.0 mg/kg/injection, schedule: Q01DX009 (ip), vehicle: saline
[11] = dose: 240.0 mg/kg/injection, schedule: Q01DX005 (ip), vehicle: saline with Tween-80

Measured: T/C

Cc1cn2ccccc2c1-c1ccccc1
inactive: [1] 111 % of control | [2] 108 % of control | [3] 106 % of control

O=[N+]([O-])c1cc(CN(CCO)CCO)c(O)c2ncccc12
inactive: [4] 104 % of control | [5] 109 % of control

C=C(C)C1CC2(C)C(C)CC(O)CC2C(OC(=O)C=C(C)C)C1O (stereo not drawn)
inactive: dose: 25.0 mg/kg/injection, schedule: Q01DX009 (ip), vehicle: Klucel (hydroxypropylcellulose) (HPC) 93 % of control | [6] 96 % of control | dose: 100.0 mg/kg/injection, schedule: Q01DX009 (ip), vehicle: Klucel (hydroxypropylcellulose) (HPC) 97 % of control

NCCc1cc2ccccc2c2ccccc12
inactive: dose: 12.5 mg/kg/injection, schedule: Q01DX005 (ip), vehicle: Klucel (hydroxypropylcellulose) (HPC) 99 % of control | dose: 25.0 mg/kg/injection, schedule: Q01DX005 (ip), vehicle: Klucel (hydroxypropylcellulose) (HPC) 99 % of control | [7] 99 % of control and 95 % of control

S=c1n(-c2ccc(Cl)cc2)c2nc3ccccc3nc(/c2=N\Nc2ccccc2)n1-c1ccc(Br)cc1
inactive: [1] 92 % of control | [2] 105 % of control | [3] 105 % of control

COc1ccc(-c2c(N)cnc(C(=O)O)c2C)c(O)c1OC
inactive: dose: 12.5 mg/kg/injection, schedule: Q01DX009 (ip), vehicle: other 95 % of control | dose: 25.0 mg/kg/injection, schedule: Q01DX009 (ip), vehicle: other 104 % of control | dose: 50.0 mg/kg/injection, schedule: Q01DX009 (ip), vehicle: other 112 % of control | dose: 100.0 mg/kg/injection, schedule: Q01DX009 (ip), vehicle: other 95 % of control | dose: 200.0 mg/kg/injection, schedule: Q01DX009 (ip), vehicle: other 100 % of control

CC1NC(=O)N(C(C)C)C1=O (stereo not drawn)
inactive: [1] 100 % of control | [2] 100 % of control | [3] 106 % of control

CN(C)CCNC1c2ccccc2-c2ccccc21
inactive: dose: 50.0 mg/kg/injection, schedule: Q01DX005 (ip), vehicle: saline 99 % of control | dose: 100.0 mg/kg/injection, schedule: Q01DX005 (ip), vehicle: saline 98 % of control | dose: 200.0 mg/kg/injection, schedule: Q01DX005 (ip), vehicle: saline 100 % of control

COC(=O)CS(=O)(=O)CCCCCS(=O)(=O)CC(=O)OC
inactive: [8] 97 % of control | [9] 106 % of control | [10] 99 % of control

COC(=O)/C(C1=C(Br)C(=O)C(C)=C(Br)C1=O)=C1/CCCN1
inactive: dose: 9.37 mg/kg/injection, schedule: Q01DX005 (ip), vehicle: Klucel (hydroxypropylcellulose) (HPC) 112 % of control | dose: 9.37 mg/kg/injection, schedule: Q04DX002 (ip), vehicle: Klucel (hydroxypropylcellulose) (HPC) 101 % of control | dose: 18.75 mg/kg/injection, schedule: Q01DX005 (ip), vehicle: Klucel (hydroxypropylcellulose) (HPC) 117 % of control | dose: 18.75 mg/kg/injection, schedule: Q04DX002 (ip), vehicle: Klucel (hydroxypropylcellulose) (HPC) 92 % of control | dose: 37.5 mg/kg/injection, schedule: Q01DX005 (ip), vehicle: Klucel (hydroxypropylcellulose) (HPC) 112 % of control | dose: 37.5 mg/kg/injection, schedule: Q04DX002 (ip), vehicle: Klucel (hydroxypropylcellulose) (HPC) 100 % of control | dose: 75.0 mg/kg/injection, schedule: Q04DX002 (ip), vehicle: Klucel (hydroxypropylcellulose) (HPC) 104 % of control

CC(C)=CCN1CCC2(C)c3cc(O)ccc3CCC2C1 (stereo not drawn)
inactive: [7] 94 % of control | dose: 100.0 mg/kg/injection, schedule: Q01DX005 (ip), vehicle: Klucel (hydroxypropylcellulose) (HPC) 104 % of control | dose: 200.0 mg/kg/injection, schedule: Q01DX005 (ip), vehicle: Klucel (hydroxypropylcellulose) (HPC) 94 % of control

COc1c(OC2OC(CO)C(O)C(O)C2O)cc2occ(-c3ccc4c(c3)OCO4)c(=O)c2c1O (stereo not drawn)
inactive: dose: 4.0 mg/kg/injection, schedule: Q01DX005 (ip), vehicle: saline with Tween-80 94 % of control | dose: 8.0 mg/kg/injection, schedule: Q01DX005 (ip), vehicle: saline with Tween-80 101 % of control | dose: 16.0 mg/kg/injection, schedule: Q01DX005 (ip), vehicle: saline with Tween-80 101 % of control | dose: 32.0 mg/kg/injection, schedule: Q01DX005 (ip), vehicle: saline with Tween-80 95 % of control

CCn1c2ccc(N(C)C)cc2c2cc(N(C)C)ccc21
inactive: [4] 99 % of control | [5] 105 % of control | [11] 102 % of control

CCN(CC)C(C)(C)C(=O)/C=C/c1ccc(Cl)cc1
inactive: dose: 60.0 mg/kg/injection, schedule: Q01DX005 (ip), vehicle: saline 115 % of control | dose: 120.0 mg/kg/injection, schedule: Q01DX005 (ip), vehicle: saline 101 % of control

CC(=O)OCc1c(COC(C)=O)c(-c2ccc(Cl)cc2)n2c1CCC2
inactive: [6] 118 % of control

O=C1O[C@@H]2C3COC(O)[C@](O)(O3)[C@@H]2/C1=C\c1ccc(O)cc1 (stereo partly drawn)
inactive: dose: 4.0 mg/kg/injection, schedule: Q01DX005 (ip), vehicle: DMSO 115 % of control | dose: 8.0 mg/kg/injection, schedule: Q01DX005 (ip), vehicle: DMSO 109 % of control | dose: 16.0 mg/kg/injection, schedule: Q01DX005 (ip), vehicle: DMSO 113 % of control | dose: 32.0 mg/kg/injection, schedule: Q01DX005 (ip), vehicle: DMSO 113 % of control

C=CCSc1nnc(-c2ccc(C(C)(C)C)cc2)n1-c1cccc(C(F)(F)F)c1
inactive: [4] 100 % of control | [5] 100 % of control | [11] 94 % of control

O=C1CC(c2ccccc2)C(=O)N1CN1CC=CCC1 (stereo not drawn)
inactive: dose: 100.0 mg/kg/injection, schedule: Q01DX001 (ip), vehicle: Klucel (hydroxypropylcellulose) (HPC) 124 % of control

CN1ON(c2ccc(Cl)c(Cl)c2)OC1=O
inactive: dose: 12.5 mg/kg/injection, schedule: Q01DX009 (ip), vehicle: saline 103 % of control | dose: 25.0 mg/kg/injection, schedule: Q01DX009 (ip), vehicle: saline 105 % of control | [8] 104 % of control and 109 % of control

CN1CCC2CC(=O)NC1(C)C2(C)C (stereo not drawn)
inactive: dose: 100.0 mg/kg/injection, schedule: Q01DX001 (ip), vehicle: saline 104 % of control | dose: 200.0 mg/kg/injection, schedule: Q01DX001 (ip), vehicle: saline 106 % of control | dose: 400.0 mg/kg/injection, schedule: Q01DX001 (ip), vehicle: saline 106 % of control

Cc1nnc(NC(=O)c2cc(=O)c3ccccc3o2)s1
inactive: dose: 100.0 mg/kg/injection, schedule: Q04DX002 (ip), vehicle: saline with Tween-80 99 % of control | dose: 200.0 mg/kg/injection, schedule: Q04DX002 (ip), vehicle: saline with Tween-80 94 % of control | dose: 400.0 mg/kg/injection, schedule: Q04DX002 (ip), vehicle: saline with Tween-80 93 % of control

CC(=O)NC(Cc1c[nH]c2ccccc12)C(=O)Oc1ccc([N+](=O)[O-])cc1 (stereo not drawn)
inactive: [8] 95 % of control | [9] 98 % of control | [10] 92 % of control
